# Experimental data: patent US20210102200A1, “SMALL MOLECULE TARGETED RECRUITMENT OF A NUCLEASE TO RNA” (The Scripps Research Institute, priority 2018, published 2021)
# Entries after “also recorded” stand apart in the source; their conditions may differ.
# Columns and labels:
# [1] = system: mature miR-96; test: Mature miR-96 levels in cells by RT-qPCR; type: cell-based; conditions: MDA-MB-231 cells
# Method: (§1) Cell culture: All cells were maintained at 37° C. with 5% CO2. MDA-MB-231 (HTB-26, ATCC) cells were cultured in RPMI 1640 medium with L-glutamine & 25 mM HEPES (Corning) supplemented with 10% FBS (Sigma) and 1×Antibiotic-Antimycotic (Corning). A549 (CCL-185, ATCC), HeLa (CCL-2, ATCC), and MCF7 (HTB-22, ATCC) cells were cultured in DMEM medium with 4.5 g/L glucose (Corning), supplemented with 10% FBS (Sigma), 1×Glutagro (Corning), and 1×Antibiotic-Antimycotic (Corning). MCF10a (CRL-10317, ATCC) cells were cultured in DMEM/F12 50/50 with L-glutamine & 15 mM HEPES (Corning), supplemented with 10% FBS (Sigma), 20 ng/mL human epidermal growth factor (Pepro Tech Inc.), […] hydrocortisone (Pfaltz & Bauer), 100 ng/mL cholera toxin (Sigma-Alrich), 10 μg/mL insulin (Sigma-Aldrich), and 1×Antibiotic-Antimycotic (Corning). […]
# (§2) RNA isolation and RT-qPCR: Total RNA was extracted from untreated and treated cells by using a Quick-RNA MiniPrep (Zymo Research) per the manufacturer's protocol. […] RNA expression levels were determined using the ΔΔCt method and normalized with U6 small nuclear RNA as a housekeeping gene. Upon treatment with chimeric compound 2, relative cleavage levels were calculated according to equation 2 (Eq. 2) in order to control for the effect of parent compound 1a, on pri-miR-96 expression: […]
# [2] = system: pri-miR-96; test: pri-miR-96 levels / cleavage in cells by RT-qPCR; type: cell-based
# Method: as §1, §2
# [3] = system: pri-miR-96; test: In vitro cleavage of pri-miR-96 by RNase L (fluorescence-based and gel mapping); type: biochemical; conditions: in vitro competition
# Description: Determination of RNA cleavage by fluorescence: A model RNase L substrate RNA1 labeled with a 5′ 6-Fluorescein and 3′ Iowa Black® FQ (5′-6FAM-UUAUCAAAU […] 3′ (SEQ ID NO: 1)—Iowa Black® FQ: RNA 1) was purchased from Integrated DNA Technologies, Inc. (IDT), which also HPLC purified the oligonucleotide. A model of pri-miR-96 RNA labeled with 5′ 6-Fluorescein and 3′ Quencher (IQ4, structure undisclosed) (5′-6FAM […] […] 3′ (SEQ ID NO: 2)—IQ4: RNA 2) was purchased from and HPLC purified by Chemgenes. Solutions of RNA 1 or RNA 2 were folded at 70° C. for 5 min and cooled to room temperature in RNase L Buffer without MgCl2, β-mercaptoethanol or ATP. After cooling, the RNA was supplemented with 10 mM MgCl2, fresh 7 mM β-mercaptoethanol, and 50 μM of ATP. […] Fluorescence intensity (Ex: 485 nm, Em: 528 nm) was measured on a BioTek FLx800 plate reader. Relative Fluorescence Enhancement was calculated by normalizing the fluorescent signal of treated RNA samples to the fluorescent signal of untreated RNA samples. Percentage RNA Cleavage was calculated by normalizing sample fluorescent signals relative to the maximum fluorescent signal, set as 100%. […] Normalized RNA Cleavage was calculated by normalizing sample fluorescent signals relative to the maximum fluorescent signal (compound with no tRNA), set as 1. […]
# [4] = molecular target: pri-miR-96's Drosha site; conditions: parent compound, pri-miR-96 Drosha site; cited from earlier work
substance,measurement,setting,value
Targaprimir-96 [Compound 1a],mature miR-96 levels,[1],reduced
same,pri-miR-96 levels,"[2]; MDA-MB-231 cells, RT-qPCR",increased; also recorded: boosted
same,2-mediated pri-miR-96 cleavage upon co-treatment with 1a,"[2]; constant concentration of 2, increasing concentrations of 1a",decreased pri-miR-96 cleavage levels in a dose dependent fashion; also recorded: reduced
same,Cleavage at U12 by 2 upon addition of the parent compound,[3],inhibited
same,Kd,[4],20 nM
